Results on ten compounds are retold here after US12617783B2, “Heterocyclic GLP-1R agonists” (BIOMEA FUSION, INC., priority 2024, dated 2026).

The target in the experiment is T1, human GLP-1R (Homo sapiens, UniProt P43220).
T1 construct: host or cells: HEK293
As to the kind of experiment: GLP-1R cAMP assay (Example B1a, HTRF, 30 min at room temperature). It counts as cell-based. The procedure, abridged: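 Competitive HTRF read-out of cAMP after 30 min room-temperature stimulation, BETP absent, of human GLP-1R-HEK293 cells (1,000/well) in HEPES buffer with 500 μM IBMX and 0.1% BSA. Activation normalised to GLP-1(7-37) positive control. EC50 from 4-parameter non-linear regression.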
In general terms: cAMP levels reflect the balance of adenylyl cyclase and phosphodiesterase activity.

The mark [1] stands for this setting: cAMP accumulation in HEK293 expressing human GLP-1R, no BETP, 30 min room temperature (Method B1a, compounds ID 1-609), Table 1, read-out: EC50.

Where two headings read alike, the source gives them in different places.

Broadly, the EC50 is the concentration that produces a half-maximal response.

T1 sequence (P43220 24-463): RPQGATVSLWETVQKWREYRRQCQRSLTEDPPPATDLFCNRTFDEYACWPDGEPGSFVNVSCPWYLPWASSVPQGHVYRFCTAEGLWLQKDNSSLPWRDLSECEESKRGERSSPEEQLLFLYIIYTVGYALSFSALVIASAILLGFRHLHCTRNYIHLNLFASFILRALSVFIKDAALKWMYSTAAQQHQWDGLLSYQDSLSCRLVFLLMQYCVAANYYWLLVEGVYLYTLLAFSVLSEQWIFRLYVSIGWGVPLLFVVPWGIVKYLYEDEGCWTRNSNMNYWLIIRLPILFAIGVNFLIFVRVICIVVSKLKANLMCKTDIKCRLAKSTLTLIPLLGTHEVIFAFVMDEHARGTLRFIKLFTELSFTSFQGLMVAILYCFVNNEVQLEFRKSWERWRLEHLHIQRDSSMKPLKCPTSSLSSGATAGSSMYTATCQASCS

For `Cc1cc(-n2nc3c(c2-n2ccn(-c4ccc5c(cnn5C)c4F)c2=O)[C@@H]2CC[C@H](C3)N2C(=O)c2cc3ccc(C4CCOC(C)(C)C4)cc3nc2C2(c3noc(=O)[nH]3)CC2)cc(C)c1F` (stereo partly drawn) [Compound 126, 3-[1-[7-(2,2-dimethyltetrahydropyran-4-yl)-3-[(1S,8R)-4-(4-fluoro-3,5-dimethyl-phenyl)-3-[3-(4-fluoro-1-methyl-indazol-5-yl)-2-oxo-imidazol-1-yl]-4,5,11-triazatricyclo[6.2.1.02,6]undeca-2,5-diene-11-carbonyl]-2-quinolyl]cyclopropyl]-4H-1,2,4-oxadiazol-5-one], the EC50 under setting [1] was greater than 10 µM.
In the case of `Cc1cc(-n2nc3c(c2-n2ccn(-c4ccc5c(cnn5C)c4F)c2=O)[C@@H]2CC[C@H]([C@H]3F)N2C(=O)c2cc3cc([C@H]4CCOC(C)(C)C4)ccc3n2[C@@]2(c3noc(=O)[nH]3)C[C@@H]2C)cc(C)c1F` [Compound 512, 3-[(1S,2S)-1-[5-[(4S)-2,2-dimethyltetrahydropyran-4-yl]-2-[(1S,7R,8R)-7-fluoro-4-(4-fluoro-3,5-dimethyl-phenyl)-3-[3-(4-fluoro-1-methyl-indazol-5-yl)-2-oxo-imidazol-1-yl]-4,5,11-triazatricyclo[6.2.1.02,6]undeca-2,5-diene-11-carbonyl]indol-1-yl]-2-methyl-cyclopropyl]-4H-1,2,4-oxadiazol-5-one], the “EC50 Ratio” value (Table 1d, potency ratio of stereoisomer pair (less potent / more potent isomer)) is reported as greater than 83. Also, the EC50 was 0.226 µM (Table 1d, stereoisomer pairs, read-out: EC50); 0.226 µM under setting [1]; less than 1 µM (text to Table 1d, bridge atoms configured into the plane or away from the reader, read-out: potency (EC50)).
As to `Cc1cc(-n2nc3c(c2-n2ccn(-c4ccc5c(cnn5C)c4F)c2=O)[C@@H]2CC[C@H](C3)N2C(=O)c2cc3sc([C@@H]4CCOC(C)(C)C4)nc3n2[C@@]2(c3noc(=O)[nH]3)C[C@@H]2C)cc(C)c1F` [Compound 307, 3-[(1S,2S)-1-[2-[(4R)-2,2-dimethyltetrahydropyran-4-yl]-5-[(1S,8R)-4-(4-fluoro-3,5-dimethyl-phenyl)-3-[3-(4-fluoro-1-methyl-indazol-5-yl)-2-oxo-imidazol-1-yl]-4,5,11-triazatricyclo[6.2.1.02,6]undeca-2,5-diene-11-carbonyl]pyrrolo[2,3-d]thiazol-4-yl]-2-methyl-cyclopropyl]-4H-1,2,4-oxadiazol-5-one], the EC50 under setting [1] was greater than 10 µM.
Same read-out and setting: the same measure for `Cc1cc(-n2nc3c(c2-n2ccn(-c4ccc5c(cnn5C)c4F)c2=O)[C@H](C)N(C(=O)c2cc4cc([C@H]5CCOC(C)(C)C5)ccc4n2C(=O)c2noc(=O)[nH]2)CC3)cc(C)c1F` [Compound 115, 3-[5-[(4S)-2,2-dimethyltetrahydropyran-4-yl]-2-[(4S)-2-(4-fluoro-3,5-dimethyl-phenyl)-3-[3-(4-fluoro-1-methyl-indazol-5-yl)-2-oxo-imidazol-1-yl]-4-methyl-6,7-dihydro-4H-pyrazolo[4,3-c]pyridine-5-carbonyl]indole-1-carbonyl]-4H-1,2,4-oxadiazol-5-one]: greater than 10 µM; for `COc1cc2c(F)c(-n3ccn(-c4c5c(nn4-c4cc(C)c(F)c(C)c4)C[C@H]4CC[C@@H]5N4C(=O)c4cc5cc([C@H]6CCOC(C)(C)C6)ccc5n4[C@@]4(c5noc(=O)[nH]5)C[C@@H]4C)c3=O)ccn2n1` [Compound 431, 3-((1S,2S)-1-(5-((S)-2,2-dimethyltetrahydro-2H-pyran-4-yl)-2-((4S,7R)-3-(3-(4-fluoro-2-methoxypyrazolo[1,5-a]pyridin-5-yl)-2-oxo-2,3-dihydro-1H-imidazol-1-yl)-2-(4-fluoro-3,5-dimethylphenyl)-2,4,5,6,7,8-hexahydro-4,7-epiminocyclohepta [c]pyrazole-9-carbonyl)-1H-indol-1-yl)-2-methylcyclopropyl)-1,2,4-oxadiazol-5 (4H)-one]: 0.125 µM; for `Cc1cc(-n2nc3c(c2-n2ccn(-c4ccc5cnncc5c4)c2=O)[C@@H]2CC[C@H](C3)N2C(=O)c2cc3cc([C@H]4CCOC(C)(C)C4)ccc3n2C2(c3noc(=O)[nH]3)CC2)cc(C)c1F` [Compound 124, 3-(1-(5-((S)-2,2-dimethyltetrahydro-2H-pyran-4-yl)-2-((4S,7R)-2-(4-fluoro-3,5-dimethylphenyl)-3-(2-oxo-3-(phthalazin-6-yl)-2,3-dihydro-1H-imidazol-1-yl)-2,4,5,6,7,8-hexahydro-4,7-epiminocyclohepta [c]pyrazole-9-carbonyl)-1H-indol-1-yl)cyclopropyl)-1,2,4-oxadiazol-5 (4H)-one]: 1.38 µM.
The same measure, in the same setting: the figure for `Cc1cc(-n2nc3c(c2-n2ccn(-c4ccc5c(cnn5C)c4C)c2=O)[C@@H]2CC[C@H](C3)N2C(=O)c2cc3cc([C@H]4CCOC(C)(C)C4)ccc3n2[C@@]2(c3noc(=O)[nH]3)C[C@@H]2C)cc(C)c1F` [Compound 305, 3-((1S,2S)-1-(2-((45,7R)-3-(3-(1,4-dimethyl-1H-indazol-5-yl)-2-oxo-2,3-dihydro-1H-imidazol-1-yl)-2-(4-fluoro-3,5-dimethylphenyl)-2,4,5,6,7,8-hexahydro-4,7-epiminocyclohepta [c]pyrazole-9-carbonyl)-5-((S)-2,2-dimethyltetrahydro-2H-pyran-4-yl)-1H-indol-1-yl)-2-methylcyclopropyl)-1,2,4-oxadiazol-5 (4H)-one] is 0.206 µM; for `Cc1cc(-n2nc3c(c2-n2ccn(-c4cc(F)c5c(cnn5C)c4F)c2=O)[C@@H]2COC[C@H](C3)N2C(=O)c2cc3cc(C4CCOC5(CC5)C4)ccc3n2[C@@]2(c3noc(=O)[nH]3)C[C@@H]2C)cc(C)c1F` (stereo partly drawn) [Compound 242, 3-((1S,2S)-1-(2-((4R,8S)-3-(3-(4,7-difluoro-1-methyl-1H-indazol-5-yl)-2-oxo-2,3-dihydro-1H-imidazol-1-yl)-2-(4-fluoro-3,5-dimethylphenyl)-2,4,5,7,8,9-hexahydro-4,8-epiminooxocino [5,4-c]pyrazole-10-carbonyl)-5-(4-oxaspiro[2.5]octan-7-yl)-1H-indol-1-yl)-2-methylcyclopropyl)-1,2,4-oxadiazol-5 (4H)-one] it is 0.168 µM.
The same measure, in the same setting: the same measure for `Cc1cc(-n2nc3c(c2-n2ccn(-c4ccc5[nH]ncc5c4F)c2=O)CN(C(=O)c2cc4cc([C@H]5CCOC(C)(C)C5)ccc4n2[C@@]2(c4noc(=O)[nH]4)C[C@@H]2C)CCC3)cc(C)c1F` [Compound 505, 3-[(1S,2S)-1-[5-[(4S)-2,2-dimethyltetrahydropyran-4-yl]-2-[2-(4-fluoro-3,5-dimethyl-phenyl)-3-[3-(4-fluoro-1H-indazol-5-yl)-2-oxo-imidazol-1-yl]-4,6,7,8-tetrahydropyrazolo[4,3-c]azepine-5-carbonyl]indol-1-yl]-2-methyl-cyclopropyl]-4H-1,2,4-oxadiazol-5-one]: 0.6 µM; for `Cc1cc(-n2nc3c(c2-n2ccn(-c4ccc5c(cnn5C)c4F)c2=O)[C@@H]2CC[C@H](C3)N2C(=O)c2cc3cc([C@H]4CCOC(C)(C)C4)ccc3n2[C@@]2(C(=O)N(C)C)C[C@@H]2C)cc(C)c1F` [Compound 240, cis-(1S,2S)-1-[5-[(4S)-2,2-dimethyltetrahydropyran-4-yl]-2-[(1S,8R)-4-(4-fluoro-3,5-dimethyl-phenyl)-3-[3-(4-fluoro-1-methyl-indazol-5-yl)-2-oxo-imidazol-1-yl]-4,5,11-triazatricyclo[6.2.1.02,6]undeca-2,5-diene-11-carbonyl]indol-1-yl]-N,N,2-trimethyl-cyclopropanecarboxamide]: 0.618 µM.
